For eight compounds, Activity and Ratio results are on record in ChEMBL document CHEMBL5325478, “The unique activity of saponin: Induction of cytotoxicity in HTLV-1 infected cells” (Bioorg Med Chem, 2023).

Each structure is given as a SMILES string. Active and inactive are the calls of the source. The calls are words filed in the database; no cut-off is given here.

In assay [1] the test system is MT2. Put plainly: Cytotoxicity against human MT2 cells infected with HTLV-1 assessed as reduction in cell viability at 100 uM incubated for 3 days by MTT assay. It is filed as functional, cell-based. The settings on record: time 3.0 day. A general note: Tetrazolium assays rely on reduction of a dye to a coloured formazan, in cell work by metabolically active cells.

Assay [2] concerns Jurkat. Put plainly: Cytotoxicity against human Jurkat cells assessed as reduction in cell viability at 100 uM incubated for 3 days by MTT assay. It is filed as functional, cell-based. The settings on record: time 3.0 day.
Assay [3] has as its system Jurkat. Put plainly: Cytotoxicity against human Jurkat cells assessed as reduction in cell viability at 50 uM incubated for 3 days by MTT assay. It is filed as functional, cell-based. The settings on record: time 3.0 day.
Assay [4] deals with MT2. Put plainly: Preferential cytotoxicity against human MT2 cells infected with HTLV-1 assessed as reduction in cell viability at 10 to 25 uM incubated for 3 days by MTT assay. It is filed as functional, cell-based. To be noted: dose 10-25 µM, time 3.0 day.
For assay [5], the system named is MT2. Put plainly: Cytotoxicity against human MT2 cells infected with HTLV-1 assessed as reduction in cell viability at 50 uM incubated for 3 days by MTT assay. It is filed as functional, cell-based. To be noted: time 3.0 day.
Assay [6] deals with MT2. Put plainly: Suppression of GAG protein cleavage in human MT-2 cells infected with HTLV-1 assessed as reduction in intracellular p28 protein expression at 50 uM incubated for 3 days by immunoblot analysis. It is filed as cell-based. The settings on record: time 3.0 day.
The test system of assay [7] is MT2. Put plainly: Suppression of GAG protein cleavage in human MT-2 cells infected with HTLV-1 assessed as increase in intracellular Pr53 protein expression at 50 uM incubated for 3 days by immunoblot analysis. It is filed as cell-based. The settings on record: time 3.0 day. (Immunoblotting shows a protein as a band on a membrane.)
Assay [8] concerns MT2. Put plainly: Suppression of GAG protein cleavage in human MT-2 cells infected with HTLV-1 assessed as reduction in p19 protein expression in supernatant at 50 uM incubated for 3 days by immunoblot analysis. It is filed as cell-based. To be noted: time 3.0 day.
Assay [9] has as its system HeLa. Put plainly: Induction of GAG aggregation in human HeLa cells transfected with Gag-FLAG expression vector assessed as increase in number of bright GAG dots at 50 uM incubated for 2 hrs by immunostaining based confocal microscopic analysis. It is filed as cell-based.
The subject of assay [10] is HeLa. Put plainly: Induction of GAG aggregation in human HeLa cells transfected with Gag-Venus expression vector assessed as increase in number of bright GAG dots at 50 uM incubated for 2 hrs by immunostaining based confocal microscopic analysis. It is filed as cell-based.
The test system of assay [11] is HeLa. Put plainly: Upregulation of membrane localized GAG protein expression in human HeLa cells transfected with GAG-FLAG expression vector assessed as effect on E-cadherin protein expression at 50 uM by chemiluminescence based immunoblotting analysis. It is filed as functional, cell-based.
Assay [12] has as its system MT2. Put plainly: Induction of GAG aggregation in top cross section of human MT-2 cells infected with HTLV-1 assessed as ratio of cells with aggregated GAG at 50 uM incubated for 2 hrs by immunostaining based confocal microscopic analysis (reference value: 4.3%). It is filed as cell-based.
Assay [13] deals with MT2. Put plainly: Induction of GAG aggregation in middle cross section of human MT-2 cells infected with HTLV-1 assessed as ratio of cells with aggregated GAG at 50 uM incubated for 2 hrs by immunostaining based confocal microscopic analysis (reference value: 44.1%). It is filed as cell-based.

Consider `CC1(C)CC[C@]2(C(=O)O[C@@H]3O[C@H](CO[C@@H]4O[C@H](CO)[C@@H](O)[C@H](O)[C@H]4O)[C@@H](O)[C@H](O)[C@H]3O)CC[C@]3(C)C(=CC[C@@H]4[C@@]5(C)CC[C@H](O[C@@H]6OC[C@H](O)[C@H](O)[C@H]6O)[C@@](C)(CO)[C@@H]5CC[C@]43C)[C@@H]2C1`, for which the outcome in assay [1] and in assay [2] was inactive.
With `CC1(C)CC[C@]2(C(=O)O)CC[C@]3(C)C(=CC[C@@H]4[C@@]5(C)CC[C@H](O[C@@H]6OC[C@H](O)[C@H](O)[C@H]6O)[C@@](C)(CO)[C@@H]5CC[C@]43C)[C@@H]2C1`, the outcome in assay [3], in assay [1], in assay [2] and in [5] was Active. In assay [4], the outcome was inactive.
`CC1(C)CC[C@]2(C(=O)O)CC[C@]3(C)C(=CC[C@@H]4[C@@]5(C)CC[C@H](O[C@@H]6OC[C@H](O)[C@H](O)[C@H]6O[C@@H]6OC[C@@H](O)[C@H](O)[C@H]6O)[C@@](C)(CO)[C@@H]5CC[C@]43C)[C@@H]2C1`: the result in [3], in assay [1], in [2] and in assay [5] was Active. For the same compound, the result in [4] was inactive.
Turning to `CC1(C)CC[C@]2(C(=O)O)CC[C@]3(C)C(=CC[C@@H]4[C@@]5(C)CC[C@H](O)[C@@](C)(CO)[C@@H]5CC[C@]43C)[C@@H]2C1`, the result in assay [6], in assay [7] and in assay [8] was inactive. Also, the result in assay [3] and in [5] was Active.
For the compound `C[C@@H]1O[C@@H](O[C@H]2[C@H](O)[C@@H](O)[C@H](OC[C@H]3O[C@@H](OC(=O)[C@]45CCC(C)(C)C[C@H]4C4=CC[C@@H]6[C@@]7(C)CC[C@H](O[C@@H]8OC[C@H](O[C@@H]9O[C@@H](C)[C@H](O)[C@@H](O)[C@H]9O)[C@H](O)[C@H]8O[C@@H]8O[C@H](CO)[C@@H](O)[C@H](O)[C@H]8O)[C@@](C)(CO)[C@@H]7CC[C@@]6(C)[C@]4(C)CC5)[C@H](O)[C@@H](O)[C@@H]3O)O[C@@H]2CO)[C@H](O)[C@H](O)[C@H]1O`, the result in [1] and in assay [2] was inactive.
For `C[C@@H]1O[C@@H](O[C@H]2[C@H](O[C@H]3CC[C@@]4(C)[C@@H](CC[C@]5(C)[C@@H]4CC=C4[C@@H]6CC(C)(C)CC[C@]6(C(=O)O[C@@H]6O[C@H](CO[C@@H]7O[C@H](CO)[C@@H](O[C@@H]8O[C@@H](C)[C@H](O)[C@@H](O)[C@H]8O)[C@H](O)[C@H]7O)[C@@H](O)[C@H](O)[C@H]6O)CC[C@]45C)[C@]3(C)CO)OC[C@H](O)[C@@H]2O)[C@H](O)[C@H](O)[C@H]1O`, the outcome in [1] and in assay [2] was inactive.
Turning to `CC1(C)CC[C@]2(C(=O)O)CC[C@]3(C)C(=CC[C@@H]4[C@@]5(C)CC[C@H](O[C@@H]6OC[C@H](O)[C@H](O)[C@H]6O[C@@H]6O[C@H](CO)[C@@H](O)[C@H](O)[C@H]6O)[C@@](C)(CO)[C@@H]5CC[C@]43C)[C@@H]2C1`, the outcome in assay [6], in assay [9], in [10], in assay [1], in assay [8] and in assay [2] was Active. Besides, the result in assay [5] was Active. In addition, the result in [3], in [7] and in assay [11] was inactive. Besides, the values for the Ratio in [12] and in assay [13] were 7.3% and 41.3%, respectively.
Turning to `CC1(C)CC[C@]2(C(=O)O[C@@H]3O[C@H](CO[C@@H]4O[C@H](CO)[C@@H](O)[C@H](O)[C@H]4O)[C@@H](O)[C@H](O)[C@H]3O)CC[C@]3(C)C(=CC[C@@H]4[C@@]5(C)CC[C@H](O[C@@H]6OC[C@H](O)[C@H](O)[C@H]6O[C@@H]6OC[C@@H](O)[C@H](O)[C@H]6O)[C@@](C)(CO)[C@@H]5CC[C@]43C)[C@@H]2C1`, the outcome in assay [1] and in assay [2] was inactive.
